# Measured values published in patent publication US9738634B2, “Heterocyclic amide compound and herbicide” (SYNGENTA PARTICIPATIONS AG, priority 2013, dated 2017).
# Key:
# Format in all cases: in vivo
# [1] = tested on: directly sown rice; assay: Test Example 3: soil treatment, effect on crop; b: directly sown rice; settings: treatment dosage 1250 g/ha
# Method in brief: (§1)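 Crop and weed responses were judged three weeks after a uniform surface spray of the water-diluted emulsion at the given g/ha rate. Seeds sat beneath about 1.5 cm of sterilized diluvial soil, and boxes stood in a greenhouse at 25 to 30° C.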
# [2] = tested on: redroot pigweed; assay: Test Example 3: weedkilling efficacy through soil treatment; L: redroot pigweed; settings: treatment dosage 1250 g/ha
# Method in brief: as §1
# [3] = tested on: black-grass; assay: Test Example 4: weedkilling efficacy by foliar treatment; H: black-grass; settings: treatment dosage 1250 g/ha
# Method in brief: (§2)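 Seeds are spot-sown into sterilized diluvial soil and covered with about 1.5 cm of soil. After 14 days' greenhouse growth at 25 to 30° C, plants are sprayed on stems and leaves with diluted emulsion at the stated g/ha rate, then scored at 3 weeks.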
# [4] = tested on: chickweed; assay: Test Example 3: weedkilling efficacy through soil treatment; N: chickweed; settings: treatment dosage 1250 g/ha
# Method in brief: as §1
# [5] = tested on: corn; assay: Test Example 3: soil treatment, effect on crop; c: corn; settings: treatment dosage 1250 g/ha
# Method in brief: as §1
# [6] = tested on: corn; assay: Test Example 4: foliar treatment, effect on crop; c: corn; settings: treatment dosage 1250 g/ha
# Method in brief: as §2
# [7] = tested on: black-grass; assay: Test Example 3: weedkilling efficacy through soil treatment; H: black-grass; settings: treatment dosage 1250 g/ha
# Method in brief: as §1
# [8] = tested on: soybean; assay: Test Example 4: foliar treatment, effect on crop; d: soybean; settings: treatment dosage 1250 g/ha
# Method in brief: as §2
# [9] = tested on: green foxtail; assay: Test Example 4: weedkilling efficacy by foliar treatment; E: green foxtail; settings: treatment dosage 1250 g/ha
# Method in brief: as §2
# [10] = tested on: birds-eye speedwell; assay: Test Example 4: weedkilling efficacy by foliar treatment; p: birds-eye speedwell; settings: treatment dosage 1250 g/ha
# Method in brief: as §2
# [11] = tested on: fig-leafed goosefoot; assay: Test Example 3: weedkilling efficacy through soil treatment; M: fig-leafed goosefoot; settings: treatment dosage 1250 g/ha
# Method in brief: as §1
# [12] = tested on: wild oat; assay: Test Example 3: weedkilling efficacy through soil treatment; G: wild oat; settings: treatment dosage 1250 g/ha
# Method in brief: as §1
# [13] = tested on: catchweed; assay: Test Example 3: weedkilling efficacy through soil treatment; O: catchweed; settings: treatment dosage 1250 g/ha
# Method in brief: as §1
# [14] = tested on: catchweed; assay: Test Example 4: weedkilling efficacy by foliar treatment; O: catchweed; settings: treatment dosage 1250 g/ha
# Method in brief: as §2
# [15] = tested on: birds-eye speedwell; assay: Test Example 3: weedkilling efficacy through soil treatment; p: birds-eye speedwell; settings: treatment dosage 1250 g/ha
# Method in brief: as §1
# [16] = tested on: chickweed; assay: Test Example 4: weedkilling efficacy by foliar treatment; N: chickweed; settings: treatment dosage 1250 g/ha
# Method in brief: as §2
# [17] = tested on: directly sown rice; assay: Test Example 4: foliar treatment, effect on crop; b: directly sown rice; settings: treatment dosage 1250 g/ha
# Method in brief: as §2
# [18] = tested on: green foxtail; assay: Test Example 3: weedkilling efficacy through soil treatment; E: green foxtail; settings: treatment dosage 1250 g/ha
# Method in brief: as §1
# [19] = tested on: wheat; assay: Test Example 4: foliar treatment, effect on crop; e: wheat; settings: treatment dosage 1250 g/ha
# Method in brief: as §2
# [20] = tested on: fig-leafed goosefoot; assay: Test Example 4: weedkilling efficacy by foliar treatment; M: fig-leafed goosefoot; settings: treatment dosage 1250 g/ha
# Method in brief: as §2
# [21] = tested on: bulrush; assay: Test Example 2: weedkilling efficacy, growth period weed treatment in the submerged state; B: bulrush; settings: treatment dosage 1000 g/ha
# Method in brief: (§3)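 Weeds treated at the 1-2 leaf stage by application of diluted emulsion onto floodwater (4 cm depth, alluvial soil) at specified g/ha. Grown in greenhouse at 25 to 30° C; herbicidal effect rated three weeks after treatment.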
# [22] = tested on: oval-leafed pondweed; assay: Test Example 1: weedkilling efficacy, preemergent weed treatment in the submerged state; C: oval-leafed pondweed; settings: treatment dosage 1000 g/ha
# Method in brief: (§4)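 Pre-emergence application onto floodwater (4 cm, alluvial soil) on the day of sowing, dose expressed as g/ha from diluted emulsion formulation. Weeds sown with 2.5-leaf transplanted rice as crop; plants held at 25–30 °C in greenhouse and scored against assessment criteria after 3 weeks.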
# [23] = tested on: Indian mallow; assay: Test Example 4: weedkilling efficacy by foliar treatment; K: Indian mallow; settings: treatment dosage 1250 g/ha
# Method in brief: as §2
# [24] = tested on: barnyard grass; assay: Test Example 1: weedkilling efficacy, preemergent weed treatment in the submerged state; A: barnyard grass; settings: treatment dosage 1000 g/ha
# Method in brief: as §4
# [25] = tested on: wild oat; assay: Test Example 4: weedkilling efficacy by foliar treatment; G: wild oat; settings: treatment dosage 1250 g/ha
# Method in brief: as §2
# [26] = tested on: barnyard grass; assay: Test Example 2: weedkilling efficacy, growth period weed treatment in the submerged state; A: barnyard grass; settings: treatment dosage 1000 g/ha
# Method in brief: as §3
# [27] = tested on: wheat; assay: Test Example 3: soil treatment, effect on crop; e: wheat; settings: treatment dosage 1250 g/ha
# Method in brief: as §1
# [28] = tested on: beet; assay: Test Example 4: foliar treatment, effect on crop; f: beet; settings: treatment dosage 1250 g/ha
# Method in brief: as §2
# [29] = tested on: Italian ryegrass; assay: Test Example 3: weedkilling efficacy through soil treatment; I: Italian ryegrass; settings: treatment dosage 1250 g/ha
# Method in brief: as §1
# [30] = tested on: redroot pigweed; assay: Test Example 4: weedkilling efficacy by foliar treatment; L: redroot pigweed; settings: treatment dosage 1250 g/ha
# Method in brief: as §2
# [31] = tested on: crabgrass; assay: Test Example 3: weedkilling efficacy through soil treatment; D: crabgrass; settings: treatment dosage 1250 g/ha
# Method in brief: as §1
# [32] = tested on: soybean; assay: Test Example 3: soil treatment, effect on crop; d: soybean; settings: treatment dosage 1250 g/ha
# Method in brief: as §1
# [33] = tested on: beet; assay: Test Example 3: soil treatment, effect on crop; f: beet; settings: treatment dosage 1250 g/ha
# Method in brief: as §1
# [34] = tested on: transplanted rice; assay: Test Example 1: preemergent weed treatment in the submerged state, effect on crop; a: transplanted rice; settings: treatment dosage 1000 g/ha
# Method in brief: as §4
# [35] = tested on: bulrush; assay: Test Example 1: weedkilling efficacy, preemergent weed treatment in the submerged state; B: bulrush; settings: treatment dosage 1000 g/ha
# Method in brief: as §4
# [36] = tested on: Italian ryegrass; assay: Test Example 4: weedkilling efficacy by foliar treatment; I: Italian ryegrass; settings: treatment dosage 1250 g/ha
# Method in brief: as §2
# [37] = tested on: oval-leafed pondweed; assay: Test Example 2: weedkilling efficacy, growth period weed treatment in the submerged state; C: oval-leafed pondweed; settings: treatment dosage 1000 g/ha
# Method in brief: as §3
# [38] = tested on: crabgrass; assay: Test Example 4: weedkilling efficacy by foliar treatment; D: crabgrass; settings: treatment dosage 1250 g/ha
# Method in brief: as §2
# [39] = tested on: Indian mallow; assay: Test Example 3: weedkilling efficacy through soil treatment; K: Indian mallow; settings: treatment dosage 1250 g/ha
# Method in brief: as §1
smiles,measurement,setting,value
CC1=C(c2cccnc2Cl)C(=O)N(C(C)(C)C(=O)Nc2cccc(F)n2)CO1 [B-2-19],b (directly sown rice) effect on crop grade,[1],"4 (weed kill ratio 70% or more, less than 90%)"
same,L (redroot pigweed) weedkilling efficacy grade,[2],"4 (weed kill ratio 70% or more, less than 90%)"
same,H (black-grass) weedkilling efficacy grade,[3],"5 (weed kill ratio 90% or more, (practically complete withering))"
same,N (chickweed) weedkilling efficacy grade,[4],"4 (weed kill ratio 70% or more, less than 90%)"
same,c (corn) effect on crop grade,[5],0 (weed kill ratio 5% or less (practically no effect))
same,c (corn) effect on crop grade,[6],"1 (weed kill ratio 5% or more, less than 20%)"
same,H (black-grass) weedkilling efficacy grade,[7],"5 (weed kill ratio 90% or more, (practically complete withering))"
same,d (soybean) effect on crop grade,[8],"1 (weed kill ratio 5% or more, less than 20%)"
same,E (green foxtail) weedkilling efficacy grade,[9],"5 (weed kill ratio 90% or more, (practically complete withering))"
same,P (birds-eye speedwell) weedkilling efficacy grade,[10],"5 (weed kill ratio 90% or more, (practically complete withering))"
same,M (fig-leafed goosefoot) weedkilling efficacy grade,[11],"5 (weed kill ratio 90% or more, (practically complete withering))"
same,G (wild oat) weedkilling efficacy grade,[12],"5 (weed kill ratio 90% or more, (practically complete withering))"
same,O (catchweed) weedkilling efficacy grade,[13],0 (weed kill ratio 5% or less (practically no effect))
same,O (catchweed) weedkilling efficacy grade,[14],"3 (weed kill ratio 40% or more, less than 70%)"
same,P (birds-eye speedwell) weedkilling efficacy grade,[15],"4 (weed kill ratio 70% or more, less than 90%)"
same,N (chickweed) weedkilling efficacy grade,[16],"3 (weed kill ratio 40% or more, less than 70%)"
same,b (directly sown rice) effect on crop grade,[17],"4 (weed kill ratio 70% or more, less than 90%)"
same,E (green foxtail) weedkilling efficacy grade,[18],"5 (weed kill ratio 90% or more, (practically complete withering))"
same,e (wheat) effect on crop grade,[19],0 (weed kill ratio 5% or less (practically no effect))
same,M (fig-leafed goosefoot) weedkilling efficacy grade,[20],"3 (weed kill ratio 40% or more, less than 70%)"
same,B (bulrush) weedkilling efficacy grade,[21],"5 (weed kill ratio 90% or more, (practically complete withering))"
same,C (oval-leafed pondweed) weedkilling efficacy grade,[22],"4 (weed kill ratio 70% or more, less than 90%)"
same,K (Indian mallow) weedkilling efficacy grade,[23],0 (weed kill ratio 5% or less (practically no effect))
same,A (barnyard grass) weedkilling efficacy grade,[24],"5 (weed kill ratio 90% or more, (practically complete withering))"
same,G (wild oat) weedkilling efficacy grade,[25],"3 (weed kill ratio 40% or more, less than 70%)"
same,A (barnyard grass) weedkilling efficacy grade,[26],"2 (weed kill ratio 20% or more, less than 40%)"
same,e (wheat) effect on crop grade,[27],0 (weed kill ratio 5% or less (practically no effect))
same,f (beet) effect on crop grade,[28],"3 (weed kill ratio 40% or more, less than 70%)"
same,I (Italian ryegrass) weedkilling efficacy grade,[29],"5 (weed kill ratio 90% or more, (practically complete withering))"
same,L (redroot pigweed) weedkilling efficacy grade,[30],"3 (weed kill ratio 40% or more, less than 70%)"
same,D (crabgrass) weedkilling efficacy grade,[31],"5 (weed kill ratio 90% or more, (practically complete withering))"
same,d (soybean) effect on crop grade,[32],0 (weed kill ratio 5% or less (practically no effect))
same,f (beet) effect on crop grade,[33],"4 (weed kill ratio 70% or more, less than 90%)"
same,a (transplanted rice) effect on crop grade,[34],0 (weed kill ratio 5% or less (practically no effect))
same,B (bulrush) weedkilling efficacy grade,[35],"5 (weed kill ratio 90% or more, (practically complete withering))"
same,I (Italian ryegrass) weedkilling efficacy grade,[36],"4 (weed kill ratio 70% or more, less than 90%)"
same,C (oval-leafed pondweed) weedkilling efficacy grade,[37],"3 (weed kill ratio 40% or more, less than 70%)"
same,D (crabgrass) weedkilling efficacy grade,[38],"5 (weed kill ratio 90% or more, (practically complete withering))"
same,K (Indian mallow) weedkilling efficacy grade,[39],0 (weed kill ratio 5% or less (practically no effect))
